Results from patent US20230041563A1, “N-(1,3,4-OXADIAZOL-2-YL)ARYLCARBOXAMIDES OR SALTS THEREOF, PREPARATION METHODS, HERBICIDAL COMPOSITIONS AND USES THEREOF” (priority 2018, published 2023).

What was measured:
Stellaria media = assay: Weeding effect in post-emergence stage (greenhouse pot spray); format: in vivo
How it was run: (§1)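 Fresh-weight control rate was assessed 3 weeks after post-emergence spray-tower application at doses of 500–15 g a.i./ha, triplicate. Weeds were treated at the 2–3 leaf stage, 2 weeks post-sowing, using acetone solutions with Tween 80 plus 1.5 L/ha methyl oleate emulsifiable concentrate.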

Amaranthus retroflexus = assay: as above; format: in vivo
How it was run: as §1

Scirpus juncoides = assay: Transplanted rice safety evaluation and weed control effect evaluation in rice field; format: in vivo; conditions: Table 7, dose 125 g a.i./ha, 14 days after treatment
Source text: (§2) Transplanted rice safety evaluation and weed control effect evaluation in rice field:
(§3) Rice field soil was loaded into a 1/1,000,000 ha pot. The seeds of echinochloa crusgali, scirpus juncoides, Bidens tripartita, Sagittaria trifolia, Monochoria vaginalis and Leptochloa chinensis were sowed and gently covered with soil, then left to stand still in greenhouse in the state of 0.5-1 cm of water storage. The tuber of Sagittaria trifolia was planted in the next day or 2 days later. It was kept at 3-4 cm of water storage thereafter. The weeds were treated by dripping the WP or SC water diluents prepared according to the common preparation method of the compounds of the present invention with pipette homogeneously to achieve specified effective amount when echinochloa crusgali, scirpus juncoides, Bidens tripartita, Monochoria vaginalis and Leptochloa chinensis reached 0.5 leaf stage and Sagittaria trifolia reached the time point of primary leaf stage.
(§4) The fertility condition of echinochloa crusgali, scirpus juncoides, Bidens tripartita, Leptochloa chinensis, Sagittaria trifolia and Monochoria vaginalis 14 days after the treatment of the compound of the invention and the fertility condition of rice 21 days after the treatment of the compound of the invention respectively with the naked eye. Evaluate the weed control effect with 0-5 activity standard level. Many compounds show excellent activity and selectivity.

Echinochloa crusgali = assay: as above; format: in vivo
Source text: as §2, §3, §4

Monochoria vaginalis = assay: as above; format: in vivo
Source text: as §2, §3, §4

[1] = test system: Indica rice (Huanghuazhan); assay: Safety test of control experiments on rice; format: in vivo; conditions: Dose 250 g a.i./ha
Source text: (§5) The activity level criteria for plant damage (i.e., growth control rate) are as follows: Comparative Experiments: [table]

[2] = test system: Japonica rice (Huaidao No. 5); assay: Safety test of control experiments on rice; format: in vivo; conditions: Dose 250 g a.i./ha
Source text: as §5

Digitaria sanguinalis = assay: Weeding effect in post-emergence stage (greenhouse pot spray); format: in vivo; conditions: for Digitaria sanguinahs (activity level): Table 3, dose 60 g a.i./ha
How it was run: as §1

Abutilon theophrasti = assay: as above; format: in vivo; conditions: for Abutilon theophrasti (activity level): Table 3, dose 60 g a.i./ha
How it was run: as §1

Echinochloa crusgalli = assay: as above; format: in vivo
How it was run: as §1

Rice = assay: Transplanted rice safety evaluation and weed control effect evaluation in rice field; format: in vivo, rice (japonica rice/Indica rice)
Experimental: as §2
In addition, the rice field soil that loaded into the 1/1,000,000 ha pot was leveled to keep water storage at 3-4 cm depth. The 3 leaf stage rice (japonica rice/Indica rice) was transplanted at 3 cm of transplanting depth the next day. The compound of the present invention was treated by the same way after 5 days of transplantation.
as §4

[3] = test system: rice and Echinochloa crusgali; assay: Herbicide selection index between rice and Echinochloa crusgali; format: in vivo; conditions: average dose causing 10% phytotoxicity to rice divided by average dose causing 90% control efficiency to Echinochloa crusgali
Setaria viridis = assay: Weeding effect in post-emergence stage (greenhouse pot spray); format: in vivo; conditions: Table 3, dose 60 g a.i./ha
How it was run: as §1

Sagittaria trifolia = assay: Transplanted rice safety evaluation and weed control effect evaluation in rice field; format: in vivo
Source text: as §2, §3, §4

Leptochloa chinensis = assay: as above; format: in vivo
Source text: as §2, §3, §4

weeds = assay: Actual control effects and combined effects of mixtures of active ingredients (i) and (ii), stem-leaf treatment, Gowing method; format: in vivo; conditions: Cyperus difformis, 20 days
[4] = Table 7, dose 125 g a.i./ha, 14 days after treatment
[5] = Table 7, dose 125 g a.i./ha, 21 days after treatment

SMILES | Stellaria media (activity level) (Stellaria media; Table 2, dose 125 g a.i./ha) | Amaranthus retroflexus (activity level) (Amaranthus retroflexus; Table 2, dose 125 g a.i./ha) | Scirpus juncoides (activity level) (Scirpus juncoides) | Echinochloa crusgali (activity level) (Echinochloa crusgali; [4]) | Monochoria vaginalis (activity level) (Monochoria vaginalis; [4]) | Indica rice (Huanghuazhan) (plant damage level) [1] | Japonica rice (Huaidao No. 5) (plant damage level) [2] | Digitaria sanguinalis (activity level) (Digitaria sanguinalis; Table 2, dose 125 g a.i./ha) | Abutilion theophrasti (activity level) (Abutilon theophrasti; Table 2, dose 125 g a.i./ha) | Echinochloa crusgah (activity level) (Echinochloa crusgalli; Table 2, dose 125 g a.i./ha) | Rice (safety level) (Rice; [5]) | Selection index between rice and Echinochloa crusgali [3] | Digitaria sanguinahs (activity level) (Digitaria sanguinalis) | Setaria viridis (activity level) (Setaria viridis) | Abutilon theophrasti (activity level) (Abutilon theophrasti) | further results
CCS(=O)(=O)c1c(C(F)(F)F)ccc(C(=O)Nc2nnc(C)o2)c1F [Compound 1-6] | 5 (Level 5: growth control rate is above 85%) | 5 (Level 5: growth control rate is above 85%) | 5 (Level 5: growth control rate is above 85%) | 5 (Level 5: growth control rate is above 85%) | 5 (Level 5: growth control rate is above 85%) | 0 (Level 0: growth control rate is less than 5%) | 0 (Level 0: growth control rate is less than 5%) | 5 (Level 5: growth control rate is above 85%) | 5 (Level 5: growth control rate is above 85%) | 5 (Level 5: growth control rate is above 85%) | 0 (Level 0: growth control rate is less than 5%) | >5 | – | – | – | Stellaria media (activity level) (Stellaria media; Table 2, dose 250 g a.i./ha): 5 (Level 5: growth control rate is above 85%); Amaranthus retroflexus (activity level) (Amaranthus retroflexus; Table 2, dose 250 g a.i./ha): 5 (Level 5: growth control rate is above 85%); Digitaria sanguinalis (activity level) (Digitaria sanguinalis; Table 2, dose 250 g a.i./ha): 5 (Level 5: growth control rate is above 85%); Abutilion theophrasti (activity level) (Abutilon theophrasti; Table 2, dose 250 g a.i./ha): 5 (Level 5: growth control rate is above 85%); Echinochloa crusgah (activity level) (Echinochloa crusgalli; Table 2, dose 250 g a.i./ha): 5 (Level 5: growth control rate is above 85%)
CCCC[S+]([O-])c1c(C(F)(F)F)ccc(C(=O)Nc2nnc(C)o2)c1F (racemic) [Compound 1-14] | 5 (Level 5: growth control rate is above 85%) | 5 (Level 5: growth control rate is above 85%) | 5 (Level 5: growth control rate is above 85%) | 5 (Level 5: growth control rate is above 85%) | 5 (Level 5: growth control rate is above 85%) | 0 (Level 0: growth control rate is less than 5%) | 0 (Level 0: growth control rate is less than 5%) | 5 (Level 5: growth control rate is above 85%) | 5 (Level 5: growth control rate is above 85%) | 5 (Level 5: growth control rate is above 85%) | 0 (Level 0: growth control rate is less than 5%) | >5 | 5 (Level 5: growth control rate is above 85%) | 5 (Level 5: growth control rate is above 85%) | 5 (Level 5: growth control rate is above 85%) | –
COc1cnc(OC)n2nc(NS(=O)(=O)c3c(OCC(F)F)cccc3C(F)(F)F)nc12 [Penoxsulam, reference compound] | – | – | – | – | – | – | – | – | – | – | – | – | – | – | – | Sagittaria trifolia (activity level) (Sagittaria trifolia; Table 8, 30 g a.i./ha): 0 (Level 0: growth control rate is less than 5%); Echinochloa crusgali (activity level) (Echinochloa crusgali; Table 8, 30 g a.i./ha): 0 (Level 0: growth control rate is less than 5%); Monochoria vaginalis (activity level) (Monochoria vaginalis; Table 8, 30 g a.i./ha): 1 (Level 1: growth control rate is greater than or equal to 5% and less than 20%); Leptochloa chinensis (activity level) (Leptochloa chinensis; Table 8, 30 g a.i./ha): 1 (Level 1: growth control rate is greater than or equal to 5% and less than 20%); pest or weed control at 15 g/ha (weeds; 480 h, (ii) 1 g a.i./mu, stem-leaf treatment, read-out: Control effect of (ii) alone at corresponding dose): 66.4%; pest or weed control at 27 g/ha (weeds; 480 h, (ii) 1.8 g a.i./mu, read-out: Control effect of (ii) alone at corresponding dose): 80.2%; Control effect of (ii) alone at corresponding dose (weeds; (ii) 1 g a.i./mu): 66.4%
Cc1nnc(NC(=O)c2ccc(C(F)(F)F)c([S@@+]([O-])CC(C)C)c2F)o1 [1-20 (R-configuration)] | – | – | – | – | – | – | – | – | – | – | – | – | – | – | – | Sagittaria trifolia (activity level) (Sagittaria trifolia; Table 8, dose 60 g a.i./ha): 5 (Level 5: growth control rate is above 85%); Echinochloa crusgali (activity level) (Echinochloa crusgali; Table 8, dose 60 g a.i./ha): 5 (Level 5: growth control rate is above 85%); Monochoria vaginalis (activity level) (Monochoria vaginalis; Table 8, dose 60 g a.i./ha): 5 (Level 5: growth control rate is above 85%); Leptochloa chinensis (activity level) (Leptochloa chinensis; Table 8, dose 60 g a.i./ha): 5 (Level 5: growth control rate is above 85%); Rice (safety level) (Rice; Table 8, dose 60 g a.i./ha): 0 (Level 0: growth control rate is less than 5%)
CC[S+]([O-])c1c(C(F)(F)F)ccc(C(=O)Nc2nnc(C)o2)c1F (centres unmarked) [Compound 1-5] | 5 (Level 5: growth control rate is above 85%) | 5 (Level 5: growth control rate is above 85%) | 5 (Level 5: growth control rate is above 85%) | 5 (Level 5: growth control rate is above 85%) | 5 (Level 5: growth control rate is above 85%) | 0 (Level 0: growth control rate is less than 5%) | 0 (Level 0: growth control rate is less than 5%) | 5 (Level 5: growth control rate is above 85%) | 5 (Level 5: growth control rate is above 85%) | 5 (Level 5: growth control rate is above 85%) | 0 (Level 0: growth control rate is less than 5%) | >5 | 5 (Level 5: growth control rate is above 85%) | 5 (Level 5: growth control rate is above 85%) | 5 (Level 5: growth control rate is above 85%) | Stellaria media (activity level) (Stellaria media; Table 2, dose 60 g a.i./ha): 5 (Level 5: growth control rate is above 85%); Amaranthus retroflexus (activity level) (Amaranthus retroflexus; Table 2, dose 60 g a.i./ha): 5 (Level 5: growth control rate is above 85%); Digitaria sanguinalis (activity level) (Digitaria sanguinalis; Table 2, dose 60 g a.i./ha): 5 (Level 5: growth control rate is above 85%); Abutilion theophrasti (activity level) (Abutilon theophrasti; Table 2, dose 60 g a.i./ha): 5 (Level 5: growth control rate is above 85%); Echinochloa crusgah (activity level) (Echinochloa crusgalli; Table 2, dose 60 g a.i./ha): 5 (Level 5: growth control rate is above 85%); Echinochloa crusgali (activity level) (Echinochloa crusgalli; Table 3, dose 60 g a.i./ha): 5 (Level 5: growth control rate is above 85%)
COCC[S+]([O-])c1c(C(F)(F)F)ccc(C(=O)Nc2nnc(C)o2)c1F (racemic) [Compound 1-57] | – | – | 5 (Level 5: growth control rate is above 85%) | 5 (Level 5: growth control rate is above 85%) | 5 (Level 5: growth control rate is above 85%) | 0 (Level 0: growth control rate is less than 5%) | 0 (Level 0: growth control rate is less than 5%) | – | – | – | 0 (Level 0: growth control rate is less than 5%) | >5 | – | – | – | Stellaria media (activity level) (Stellaria media; Table 2, dose 500 g a.i./ha): 5 (Level 5: growth control rate is above 85%); Amaranthus retroflexus (activity level) (Amaranthus retroflexus; Table 2, dose 500 g a.i./ha): 5 (Level 5: growth control rate is above 85%); Digitaria sanguinalis (activity level) (Digitaria sanguinalis; Table 2, dose 500 g a.i./ha): 5 (Level 5: growth control rate is above 85%); Abutilion theophrasti (activity level) (Abutilon theophrasti; Table 2, dose 500 g a.i./ha): 5 (Level 5: growth control rate is above 85%); Echinochloa crusgah (activity level) (Echinochloa crusgalli; Table 2, dose 500 g a.i./ha): 5 (Level 5: growth control rate is above 85%)
